Experimental data reported in patent US20150118293A1, “NOVEL DELIVERY SYSTEM FOR ANTICANCER DRUG BASED ON SHORT-CHAIN- LENGTH POLYHYDROXYALKANOATE NANOPARTICLES” (priority 2013, published 2015).

Legend:
[1] = tested on: cancer cells line A549; test: in vitro cytotoxicity, MTT viability assay; format: cell-based; settings: free EPT, concentration not given
Protocol: The cellular toxicity of blank and EPT loaded scl-PHA nanoparticles as prepared in Example 2 were determined by using cancer cells line A549. The cells were cultured in Dulbecco's Modified Eagle's Medium (DMEM) containing 1% (v/v) Penicillin-Streptomycin (P/S, 10,000 U) antibiotic and 10% (v/v) Fetal Bovine Serum (FBS) and incubated for 24 h at 37° C. and 5% CO2. When cells grew to reach 95% confluence, they were detached from the cell culture flasks using trypsin-EDTA. The cell suspension was centrifuged at 900 rpm for 5 min and then resuspended in culture medium to get the final concentration of 1×10^5 cells/mL. About 200 μL of the cell suspensions were transferred to each well of a clear, flat bottom 96-well plate (Costar) and incubated for 24 h. On treatment day, medium was removed and fresh medium containing 4-fold serial dilutions i.e., 250.0 μg/mL (4 times), 62.5 μg/mL (8 times) and 1.6 μg/mL (12 times) of blank and EPT loaded scl-PHA nanoparticles was added. The toxicity of the nanoparticles was checked after 24, 48 and 72 h of treatment using 3-(4,5-dimethylthiazole-2-yl)-2,5-diphenyl tetrazolium (MTT) viability assay. About 5 mg of MTT was dissolved in 1 mL physiological buffer saline (PBS) solution, followed by 10 times dilution in culture medium. About 100 μL of MTT solution were added to each well after the removal of treatments and incubated for 4 h before the addition of 100 μl, of the solubilization solution (anhydrous isopropanol containing 0.1 N HCl and 10% Triton X-100). The plates were then incubated overnight and absorbance was taken at 570 nm on a microplate reader (BMG FLUOstar OPTIMA) and subtracted from the background signals at 690 nm. The cell % inhibition was calculated relative to wells containing only cell cultures without nanoparticles by using the following formula: […]

[2] = neutral pH; cited from earlier work

Compound: Cc1c2ccncc2c(C)c2c1[nH]c1ccccc12 [EPT, 5,11-dimethyl-6H-pyrido[4,3-b]carbazole]
- Relative % inhibition for A549 cells ([1]; 24 h): 10.02 ± 0.86%
- Relative % inhibition for A549 cells ([1]; 48 h): 25.40 ± 1.35%
- Relative % inhibition for A549 cells ([1]; 72 h): 32.38%
- water solubility [2]: approximately 0.62 mM
